According to patent publication US20100275276A1, “ZEBRAFISH MODEL FOR ASSESSING GASTROINTESTINAL MOTILITY” (THE RESEARCH FOUNDATION OF STATE UNIVERSITY OF NEW YORK, priority 2006, published 2010):
Where a name gives a salt, the structure may show the parent alone. Read-outs that look alike come from different tables or passages of the source.

Key:
zebrafish larvae [1] = test: Fluorescent microsphere spectrophotometric assay of propulsive GI motility; type: in vivo; settings: for Reduction of fluorescence intensity: 11 dpf larvae, one day after loading; for Total fluorescence intensity one day after loading: 11 day old larvae, 10^−5 mg/ml, n=5
Excerpt: Gastrointestinal (GI) motility disorders such as constipation and dyspepsia are common, but current treatment options are largely ineffective, primarily due to a limited understanding of GI motility. The broad objective is to develop a new zebrafish-based model system for GI motility. Muscular contractions of the GI tract may be directly observed in a zebrafish larva, and GI motility has been quantified as contraction frequency. […] The specific objective of this project is to develop an assay to specifically measure propulsion of luminal contents. […] A decrease in fluorescence emission would indicate that ingested microspheres have been eliminated via propulsive motility. Fluorescence spectroscopy was used to quantify the fluorescence intensity as a function of time.
Total fluorescence emission averaged 62,630±23,780 counts per sec (n=5 samples, 5 larvae grouped per sample) immediately after ingestion in 11 day old larvae. One day later total fluorescence intensity averaged 53,277±6,333 counts per sec, a 15% decrease (n=5, P<0.05). […] Two prokinetic agents, erythromycin and 5-hydroxytryptamine (10^−5 mg/ml), were used to validate the assay. One day after loading, the total fluorescence intensity decreased after application of erythromycin (69,782±10,423, n=5, P<0.09) and with 5 HT (86,820±21,850, n=5, P<0.003).
After larvae spontaneously ingest the fluorescent micro spheres, which were suspended in the medium that the larvae are in, the larvae were washed and separated into 2 groups. The first group was sacrificed and mashed. The total fluorescence emission was measured from the ‘mashed’ larvae. The second group was sacrificed some time later. If GI motility is functional then some fraction of the micro spheres will have been excreted as a result of GI propulsive motility. The second group was sacrificed and mashed and total fluorescence emission was measured.
The difference between Group 1 and Group 2 represents the fraction of beads that has been excreted and this difference is a measure of functional GI propulsive motility.

zebrafish larvae [2] = test: Spatiotemporal mapping of spontaneous GI motility; type: in vivo; settings: 11 dpf larvae treated with 50 μM Gleevec
Excerpt: Spontaneous GI motility occurs at regular intervals and propagates along the GI tract at 11 dpf when ICC are fully present in the GI tract.
This Example uses digital imaging and image processing techniques to quantify coordinated GI motility. […] These types of motility can be distinguished in time-lapse digital images.
This Example uses a technique, spatiotemporal mapping, that converts a series of images into a single image with dimensions of time and distance. This single image supplies data on movement, and therefore propagation contractions can be visualized and quantified.

zebrafish larvae [3] = test system: zebrafish larvae
[4] = 14 dpf Gleevec treated larvae, Table 1 of Example 8
[5] = 14 dpf Gleevec treated larvae, per 300 second interval, Table 1 of Example 8
[6] = 14 dpf larvae, imatinib mesylate 50 μM added at 5 dpf, n = 3
[7] = imatinib mesylate 50 μM added at 5 dpf

Row | Structure (SMILES) | Reduction of fluorescence intensity (zebrafish larvae [1]) | Total fluorescence intensity one day after loading (zebrafish larvae [1]) | Spontaneous motility (spatiotemporal map) (zebrafish larvae [2]) | Distance (zebrafish larvae [3]; [4]) | Velocity (zebrafish larvae [3]; [4]) | Total # contractions, Average (zebrafish larvae [3]; [5]) | Total # contractions, Total (zebrafish larvae [3]; [5]) | Distance (zebrafish larvae [3]; [6]) | Velocity (zebrafish larvae [3]; [6]) | Total # contractions/300 sec (zebrafish larvae [3]; 14 dpf larvae, imatinib mesylate 50 μM added to medium at 5 dpf, n = 3) | Contractions in treated 14 dpf larvae (description) (zebrafish larvae [3]; Gleevec treated 14 dpf larvae) | Character of the remaining contractions (zebrafish larvae [3]; [7]) | Effect on number of contractions (zebrafish larvae [3]; [7])
1 | NCCc1c[nH]c2ccc(O)cc12 [5-hydroxytryptamine] | 53% | 86,820±21,850 counts per sec |  |  |  |  |  |  |  |  |  |  | 
2 | CC[C@H]1OC(=O)[C@H](C)[C@@H](O[C@H]2C[C@@](C)(OC)[C@@H](O)[C@H](C)O2)[C@H](C)[C@@H](O[C@@H]2O[C@H](C)C[C@H](N(C)C)[C@H]2O)[C@](C)(O)C[C@@H](C)C(=O)[C@H](C)[C@@H](O)[C@]1(C)O [erythromycin] | 23% | 69,782±10,423 counts per sec |  |  |  |  |  |  |  |  |  |  | 
3 | Cc1ccc(NC(=O)c2ccc(CN3CCN(C)CC3)cc2)cc1Nc1nccc(-c2cccnc2)n1 [imatinib mesylate] |  |  | absent | 399.8 ± 67.2 μm | 10.2 ± 3.1 μm/sec | 2.3 ± 0.58 | 7 | 399.8 ± 67.2 μm | 10.2 ± 3.1 μm/sec | 7 contractions/300 sec | few contractions which were variable and did not fully propagate | unorganized, shorter and slower | decrease in the number of contractions
